Values quoted from earlier work, collected in publication PMC5748270 (Organic & biomolecular chemistry, 2017).

How the values were obtained:
B16 melanoma = settings: comparably to mitomycin C
Plasmodium falciparum K1 = settings: selectivity on par with artesunate
HSV-1 = settings: read-out: HSV-1 antiviral EC50

Compound: O=c1c(O)cccc(O)c1O [3,7-dHT, 3,7-Dihydroxytropolones]
- cell-based HIV antiviral activity (HIV): promising cell-based HIV antiviral activity
- Activity against B16 melanoma cells relative to αHTs (B16 melanoma cells): an order of magnitude greater than αHTs
- Lifespan of mice bearing B16 melanoma (B16 melanoma): increases the lifespan

Compound: Nc1nc2c(ncn2COCCO)c(=O)[nH]1 [ACV, acyclovir]
- Potency against HSV-2 relative to HSV-1 (HSV-2; obtained previously under identical conditions): nearly an order of magnitude less potent

Compound: O=C(O)c1cc(O)c(O)c(=O)c(O)c1 [puberulic acid]
- Antimalarial activity (Plasmodium falciparum K1): potent antimalarial activity

Compound: manicol
- EC50 (HSV-1): 350 nM
- EC50 (HSV-2; read-out: HSV-2 antiviral EC50): 580 nM
